pKi: −log10 of the molar value.
How the values were obtained:
[1] = molecular target: 5-HT7 serotoninergic receptors (Homo sapiens, UniProt P34969); assay: Cellular functional assay, 5-HT7 serotoninergic receptors; assay type: cell-based; conditions: agonist mode; percent of control specific agonist response
Protocol: The results are expressed as a percent of control specific agonist response ((measured specific response/control specific agonist response)×100) obtained in the presence of the test compounds.
The EC50 values (concentration producing a half-maximal specific response) and IC50 values (concentration causing a half-maximal inhibition of the control specific agonist response) were determined by non-linear regression analysis of the concentration-response curves generated with mean replicate values using Hill equation curve fitting (Y=D+[(A−D)/(1+(C/C50)nH)], where Y=specific response, D=minimum specific response, A=maximum specific response, C=compound concentration, and C50=EC50 or IC50, and nH=slope factor). This analysis was performed using a software developed at Cerep (Hill software) and validated by comparison with data generated by the commercial software SigmaPlot® 4.0 for Windows® (© 1997 by SPSS Inc.).
For the antagonists, the apparent dissociation constants (Kb) were calculated using the modified Cheng Prusoff equation (Kb=IC50/(1+(A/EC50A)), where A=concentration of reference agonist in the assay, and EC50A=EC50 value of the reference agonist).

5-HT6 receptor = molecular target: T1, 5-HT6 receptor (Homo sapiens, UniProt P50406); assay: Radioligand binding assay, serotoninergic 5-HT6 receptors; conditions: for inhibition at 1 µM: binding assay result in %, Table 5a; for pKi: read-out: Inhibition constants Ki, 5-HT6
T1 construct: purchased PerkinElmer
Outline: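 Values are Ki from Cheng–Prusoff, taking IC50 from Hill nonlinear regression of competition curves and KD from a Scatchard plot. Specific binding was total minus binding with excess unlabelled ligand. Radioligand displacement was detected by scintillation counting, and data were also reported as percent of control specific binding.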

5-HT2C receptor = molecular target: T2, 5-HT2C receptor (Homo sapiens, UniProt P28335); assay: Radioligand binding assay, serotoninergic 5-HT2C receptors; conditions: test compound 1×10^−6 M
T2 construct: expressed in transfected cells; host or cells: HEK-293 cells
T2 sequence (P28335 33-458): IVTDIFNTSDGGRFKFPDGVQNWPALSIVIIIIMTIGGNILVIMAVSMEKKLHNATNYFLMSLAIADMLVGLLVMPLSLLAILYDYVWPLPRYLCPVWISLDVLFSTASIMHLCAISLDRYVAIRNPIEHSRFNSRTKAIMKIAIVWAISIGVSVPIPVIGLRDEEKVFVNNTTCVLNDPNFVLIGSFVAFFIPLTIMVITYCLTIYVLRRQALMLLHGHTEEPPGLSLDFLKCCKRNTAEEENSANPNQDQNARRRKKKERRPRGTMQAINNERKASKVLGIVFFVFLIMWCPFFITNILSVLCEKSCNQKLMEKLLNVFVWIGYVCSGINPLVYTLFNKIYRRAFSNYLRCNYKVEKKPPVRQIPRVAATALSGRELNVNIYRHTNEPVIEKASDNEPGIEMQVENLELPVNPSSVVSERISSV

[2] = molecular target: dopaminergic receptors D2 (Homo sapiens, UniProt P14416); assay: Radioligand binding assay, dopaminergic D2 receptors; conditions: for inhibition at 1 µM: binding assay, test compound 1×10^−6 M; for pKi: read-out: Inhibition constants Ki for D2 receptors, D2
Outline: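 Competition binding with scintillation counting of bound radioligand; specific binding taken as total minus non-specific binding measured with excess unlabelled ligand. IC50 obtained by Hill-equation non-linear regression of replicate-mean curves, then converted to Ki via Cheng–Prusoff using radioligand concentration and Scatchard-derived KD.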

[3] = molecular target: T3, serotonin transporter (SERT) (Homo sapiens, UniProt P31645); assay: Radioligand binding assay, serotonin transporter (SERT); conditions: binding assay, test compound 1×10^−6 M
T3 construct: expressed in transfected cells; host or cells: CHO cells
Outline: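 Radioligand competition binding with scintillation detection; specific binding is total minus binding under excess unlabelled ligand. Reported as % of control specific binding or % inhibition; IC50 from Hill-equation non-linear regression of competition curves, and Ki via Cheng-Prusoff using radioligand concentration and Scatchard-derived KD.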

[4] = molecular target: dopaminergic receptors D3 (Homo sapiens, UniProt P35462); assay: Radioligand binding assay, dopaminergic D3 receptors; conditions: test compound 1×10^−6 M
Outline: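 Competition radioligand binding at human D2, D3 and D4.4 receptors, detected by scintillation counting; nonspecific binding defined with excess unlabelled ligand. Results as percent inhibition of control specific binding; IC50 by Hill-equation nonlinear regression; Ki via Cheng-Prusoff, with radioligand KD from Scatchard plot.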

α2C adrenergic receptors = molecular target: T4, α2C adrenergic receptors (Homo sapiens, UniProt P18825); assay: Radioligand binding assay, adrenergic α2C receptors; conditions: test compound 1×10^−6 M
T4 construct: expressed in transfected cells; host or cells: CHO cells
T4 sequence (P18825 1-462): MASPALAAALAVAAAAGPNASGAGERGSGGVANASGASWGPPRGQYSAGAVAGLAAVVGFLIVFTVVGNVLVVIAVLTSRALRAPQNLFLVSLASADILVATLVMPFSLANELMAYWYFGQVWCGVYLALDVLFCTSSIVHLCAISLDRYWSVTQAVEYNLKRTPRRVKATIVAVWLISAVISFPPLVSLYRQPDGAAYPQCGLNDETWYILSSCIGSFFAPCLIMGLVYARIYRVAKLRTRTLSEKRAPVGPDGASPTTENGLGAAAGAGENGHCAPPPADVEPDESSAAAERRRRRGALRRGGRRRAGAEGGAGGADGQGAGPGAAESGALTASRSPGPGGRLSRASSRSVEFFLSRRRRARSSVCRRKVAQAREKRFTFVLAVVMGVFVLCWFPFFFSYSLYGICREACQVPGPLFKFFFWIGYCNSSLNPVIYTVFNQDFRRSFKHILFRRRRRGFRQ
Outline: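 Competitive radioligand binding at human α2C receptors, with scintillation counting. Nonspecific binding defined with excess unlabelled ligand; results given as % inhibition of control specific binding. IC50 from Hill-equation fits of competition curves; Ki via Cheng-Prusoff using radioligand concentration and Scatchard-derived KD.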

5-HT7 serotoninergic receptors, sequence (P34969 whole entry): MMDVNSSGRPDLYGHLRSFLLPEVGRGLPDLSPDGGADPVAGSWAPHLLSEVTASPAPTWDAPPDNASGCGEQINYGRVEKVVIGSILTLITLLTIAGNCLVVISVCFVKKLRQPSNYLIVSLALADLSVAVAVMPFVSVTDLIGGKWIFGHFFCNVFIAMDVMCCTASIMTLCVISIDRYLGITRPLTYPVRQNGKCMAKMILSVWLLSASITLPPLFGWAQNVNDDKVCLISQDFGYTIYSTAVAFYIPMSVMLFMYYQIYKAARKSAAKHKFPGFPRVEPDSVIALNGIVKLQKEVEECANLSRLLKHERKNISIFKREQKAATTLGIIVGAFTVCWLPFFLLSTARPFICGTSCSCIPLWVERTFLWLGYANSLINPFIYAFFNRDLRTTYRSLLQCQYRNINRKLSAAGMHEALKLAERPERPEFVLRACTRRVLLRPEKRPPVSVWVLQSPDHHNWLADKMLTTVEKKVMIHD
dopaminergic receptors D2, sequence (P14416 whole entry): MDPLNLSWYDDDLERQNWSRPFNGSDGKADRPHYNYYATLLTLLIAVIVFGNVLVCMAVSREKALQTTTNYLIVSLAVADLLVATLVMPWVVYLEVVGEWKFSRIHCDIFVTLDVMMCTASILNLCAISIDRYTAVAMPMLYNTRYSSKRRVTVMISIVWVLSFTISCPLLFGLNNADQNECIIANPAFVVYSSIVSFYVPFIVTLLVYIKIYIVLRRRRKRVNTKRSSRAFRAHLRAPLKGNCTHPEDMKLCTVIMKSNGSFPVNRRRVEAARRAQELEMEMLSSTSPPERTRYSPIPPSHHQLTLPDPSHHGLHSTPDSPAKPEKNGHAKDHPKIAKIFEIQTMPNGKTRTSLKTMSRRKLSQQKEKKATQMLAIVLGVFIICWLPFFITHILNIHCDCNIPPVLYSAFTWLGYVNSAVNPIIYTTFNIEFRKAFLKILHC
T3 sequence (P31645 whole entry): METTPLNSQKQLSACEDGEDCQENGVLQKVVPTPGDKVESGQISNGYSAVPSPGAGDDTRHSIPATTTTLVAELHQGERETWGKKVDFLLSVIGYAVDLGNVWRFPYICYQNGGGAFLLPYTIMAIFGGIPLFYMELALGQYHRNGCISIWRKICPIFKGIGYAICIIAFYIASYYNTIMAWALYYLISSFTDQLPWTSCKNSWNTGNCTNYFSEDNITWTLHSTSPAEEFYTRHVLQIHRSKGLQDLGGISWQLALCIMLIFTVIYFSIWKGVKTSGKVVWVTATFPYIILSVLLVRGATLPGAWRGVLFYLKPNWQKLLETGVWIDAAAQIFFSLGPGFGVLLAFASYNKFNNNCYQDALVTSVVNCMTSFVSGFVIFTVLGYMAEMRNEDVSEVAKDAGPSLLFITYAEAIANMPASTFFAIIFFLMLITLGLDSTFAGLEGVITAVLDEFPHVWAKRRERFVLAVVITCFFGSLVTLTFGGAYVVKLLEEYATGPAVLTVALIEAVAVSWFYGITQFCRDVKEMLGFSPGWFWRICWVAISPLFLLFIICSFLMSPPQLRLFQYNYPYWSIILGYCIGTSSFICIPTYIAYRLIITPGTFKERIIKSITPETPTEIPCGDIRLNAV
T1 sequence (P50406 whole entry): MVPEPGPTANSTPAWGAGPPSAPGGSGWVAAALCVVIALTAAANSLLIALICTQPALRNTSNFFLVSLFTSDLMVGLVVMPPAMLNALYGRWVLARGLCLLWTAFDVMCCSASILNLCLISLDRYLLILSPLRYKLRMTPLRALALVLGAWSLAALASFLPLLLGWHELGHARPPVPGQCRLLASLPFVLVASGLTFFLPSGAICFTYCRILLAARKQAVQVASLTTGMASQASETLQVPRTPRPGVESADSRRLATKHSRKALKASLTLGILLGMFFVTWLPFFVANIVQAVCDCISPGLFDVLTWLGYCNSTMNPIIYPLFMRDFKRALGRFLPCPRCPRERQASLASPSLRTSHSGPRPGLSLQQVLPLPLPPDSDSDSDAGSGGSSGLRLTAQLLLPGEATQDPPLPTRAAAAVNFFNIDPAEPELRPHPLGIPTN
dopaminergic receptors D3, sequence (P35462 whole entry): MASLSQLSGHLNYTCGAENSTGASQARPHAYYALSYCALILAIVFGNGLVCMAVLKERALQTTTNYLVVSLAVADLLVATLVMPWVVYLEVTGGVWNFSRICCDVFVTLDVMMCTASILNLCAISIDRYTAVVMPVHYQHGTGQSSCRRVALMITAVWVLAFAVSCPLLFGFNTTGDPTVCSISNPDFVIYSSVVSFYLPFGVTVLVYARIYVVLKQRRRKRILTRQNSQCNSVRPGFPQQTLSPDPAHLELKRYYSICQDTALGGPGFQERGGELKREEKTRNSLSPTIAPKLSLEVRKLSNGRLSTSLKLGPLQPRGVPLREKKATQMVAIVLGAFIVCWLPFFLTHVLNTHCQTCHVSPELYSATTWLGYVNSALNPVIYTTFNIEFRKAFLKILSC

Row | Compound | 5-HT7 ag [%] [1] [%] | inhibition at 1 µM (5-HT6 receptor) [%] | pKi (5-HT6 receptor) | inhibition at 1 µM (5-HT2C receptor) [%] | inhibition at 1 µM [2] [%] | pKi [2] | inhibition at 1 µM [3] [%] | inhibition at 1 µM [4] [%] | inhibition at 1 µM (α2C adrenergic receptors) [%]
1 | O=S(=O)(N[C@@H]1CCN(CCCc2noc3cc(F)ccc23)C1)c1ccc2ccccc2c1 [Compound 206, N-[(3R)-1-[3-(6-Fluoro-1,2-benzoxazol-3-yl)propyl]pyrrolidin-3-yl]naphthalene-2-sulphonamide] | −1 | 101 | 8.21 | 84 | 101 | 9.52 | 62 | 95 | 93
2 | O=S(=O)(N[C@@H]1CCN(CCCc2noc3cc(F)ccc23)C1)c1cc2ccccc2o1 [Compound 214, N-[(3R)-1-[3-(6-Fluoro-1,2-benzoxazol-3-yl)propyl]pyrrolidin-3-yl]benzo-furan-2-sulphonamide] | −1 | 97 | 8.12 | 65 | 97 | 8.55 | 15 | 89 | 74
3 | O=S(=O)(N[C@H]1CCN(CCCc2noc3cc(F)ccc23)C1)c1cc2ccccc2o1 [Compound 215, N-[(3S)-1-[3-(6-Fluoro-1,2-benzoxazol-3-yl)propyl]pyrrolidin-3-yl]benzo-furan-2-sulphonamide] | 0 | 93 | 7.68 | 74 | 97 | 8.52 | 35 | 85 | 66
4 | O=S(=O)(NC1CCN(CCCc2noc3cc(F)ccc23)C1)c1cc2ccccc2o1 (stereo not shown) [Compound 216, N-[1-[3-(6-Fluoro-1,2-benzoxazol-3-yl)propyl]pyrrolidin-3-yl]benzofuran-2-sulphonamide] | −5 | 97 | – | 62 | 98 | – | 53 | 85 | 80
5 | Cc1cc(S(=O)(=O)NC2CCN(CCCc3noc4cc(F)ccc34)C2)c(C)s1 (stereo not shown) [Compound 221, N-[1-[3-(6-Fluoro-1,2-benzoxazol-3-yl)propyl]pyrrolidin-3-yl]-2,5-dimethyl-thiophene-3-sulphonamide] | 2 | 92 | – | 81 | 97 | – | 67 | 92 | 88
6 | Cc1cc(S(=O)(=O)N[C@@H]2CCN(CCCc3noc4cc(F)ccc34)C2)c(C)s1 [Compound 222, N-[(3R)-1-[3-(6-Fluoro-1,2-benzoxazol-3-yl)propyl]pyrrolidin-3-yl]-2,5-dimethyl-thiophene-3-sulphonamide] | −1 | 94 | – | 65 | 97 | – | 2 | 74 | 77
7 | Cc1cc(S(=O)(=O)N[C@H]2CCN(CCCc3noc4cc(F)ccc34)C2)c(C)s1 [Compound 223, N-[(3S)-1-[3-(6-Fluoro-1,2-benzoxazol-3-yl)propyl]pyrrolidin-3-yl]-2,5-dimethyl-thiophene-3-sulphonamide] | 0 | 94 | – | 65 | 89 | – | 17 | 57 | 60
8 | O=S(=O)(N[C@@H]1CCN(CCCc2noc3cc(F)ccc23)C1)c1csc2ccccc12 [Compound 224, N-[(3R)-1-[3-(6-Fluoro-1,2-benzoxazol-3-yl)propyl]pyrrolidin-3-yl]benzothiophene-3-sulphonamide] | −1 | 99 | 8.40 | 71 | 98 | 8.06 | 64 | 87 | 79
9 | O=S(=O)(N[C@H]1CCN(CCCc2noc3cc(F)ccc23)C1)c1csc2ccccc12 [Compound 225, N-[(3S)-1-[3-(6-Fluoro-1,2-benzoxazol-3-yl)propyl]pyrrolidin-3-yl]benzothiophene-3-sulphonamide] | 0 | 99 | 8.80 | 72 | 97 | 8.04 | 77 | 84 | 80
10 | Cc1ccc2sc(S(=O)(=O)NC3CCN(CCCc4noc5cc(F)ccc45)C3)cc2c1 (stereo not shown) [Compound 226, N-[1-[3-(6-Fluoro-1,2-benzoxazol-3-yl)propyl]pyrrolidin-3-yl]-5-methylbenzothiophene-2-sulphonamide] | −2 | 92 | – | 89 | 99 | – | 54 | 95 | 86
11 | COc1ccc2cc(S(=O)(=O)NC3CCN(CCCc4noc5cc(F)ccc45)C3)ccc2c1 (stereo not shown) [Compound 227, N-[1-[3-(6-Fluoro-1,2-benzoxazol-3-yl)propyl]pyrrolidin-3-yl]-6-methoxy-naphthalene-2-sulphonamide] | −2 | 94 | – | 82 | 97 | – | 69 | 96 | 90
12 | Cc1ccc2sc(S(=O)(=O)N[C@@H]3CCN(CCCc4noc5cc(F)ccc45)C3)cc2c1 [Compound 228, N-[(3R)-1-[3-(6-Fluoro-1,2-benzoxazol-3-yl)propyl]pyrrolidin-3-yl]-5-methyl-benzothiophene-2-sulphonamide] | 0 | 100 | 7.85 | 91 | 100 | 9.15 | 61 | 97 | 95
13 | O=S(=O)(NC1CCN(CCCc2noc3cc(F)ccc23)C1)c1cc2ccc(F)cc2s1 (stereo not shown) [Compound 234, 6-Fluoro-N-[1-[3-(6-fluoro-1,2-benzoxazol-3-yl)propyl]pyrrolidin-3-yl]benzothiophene-2-sulphonamide] | 0 | 98 | – | 86 | 99 | – | 65 | 94 | 90

— patent US20140135310A1, “SULPHONAMIDE DERIVATIVES OF ALICYCLIC AMINES FOR THE TREATMENT OF CENTRAL NERVOUS SYSTEM DISEASES” (Adamed Sp. z o.o., priority 2011, published 2014)
